The source of these data is PMC7271289, “Anti-Inflammatory and Anticoagulant Activities of Synthesized NSAID Prodrug Esters” (Scientifica, 2020).

Where two headings read alike, the source gives them in different places.

The subject of assay [1] is platelet poor citrated plasma. In words: Activated partial thromboplastin time (aPTT) test. The assay is classed as biochemical, human. Particulars: drug sample 3000 mg/L; for aPTT Average ± SD: average of three volunteers; for aPTT: equal volume with plasma, 5 min at 37°C. The method, then:
(§1) PT and aPTT tests were carried out simultaneously. Blood samples from three healthy volunteers were collected in sodium citrated blood tubes (Vacutainer, BD). Blood samples were then centrifuged for 15 min at 1500 rpm to prepare platelet poor citrated plasma. The LABiTec (Germany) apparatus was used for the determination of PT and aPTT. Equal volumes of drug samples (3000 mg/L) and platelet-depleted plasma were incubated for 5 min at 37°C. The PT test was performed as follows: a 100 μl of tissue thromboplastin (HUMAN) was added to 50 μl of prewarmed mixture, and clotting time was measured. For the aPTT test, 50 μl of rabbit brain extract was added to equal volume of the prewarmed platelet poor plasma-extract mixture incubated for 1 minute after which 50 μl of 0.025 M calcium chloride (HUMAN) was added and clotting time was measured; PBS was used as control.

Assay [2] concerns the target T1, COX2 (Homo sapiens, UniProt P35354).
T1 construct: purchased Cayman Chemical, USA 560131
T1 sequence (P35354 18-604): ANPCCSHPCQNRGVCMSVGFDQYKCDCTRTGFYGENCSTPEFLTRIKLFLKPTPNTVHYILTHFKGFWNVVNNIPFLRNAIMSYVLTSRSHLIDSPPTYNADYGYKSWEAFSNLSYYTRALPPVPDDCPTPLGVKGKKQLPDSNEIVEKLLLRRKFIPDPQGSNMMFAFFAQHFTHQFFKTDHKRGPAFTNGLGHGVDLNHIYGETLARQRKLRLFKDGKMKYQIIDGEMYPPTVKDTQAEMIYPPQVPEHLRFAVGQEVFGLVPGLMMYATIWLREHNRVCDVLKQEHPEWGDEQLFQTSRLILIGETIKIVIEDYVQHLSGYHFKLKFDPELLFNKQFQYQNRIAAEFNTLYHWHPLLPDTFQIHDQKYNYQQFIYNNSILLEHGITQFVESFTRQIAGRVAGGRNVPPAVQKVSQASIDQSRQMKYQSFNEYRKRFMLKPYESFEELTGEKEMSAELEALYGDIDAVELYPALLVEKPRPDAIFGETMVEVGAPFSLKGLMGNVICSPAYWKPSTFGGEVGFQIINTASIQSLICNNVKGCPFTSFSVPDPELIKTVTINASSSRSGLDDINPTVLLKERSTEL
The assay can be described thus: biochemical. As to the method:
IR (infrared) spectra were done using FTIR (Thermo Fisher Nicolet IS5). […] Nuclear magnetic resonance (NMR) spectra were obtained using the Bruker Avance (300 MHz) spectrometer, micropipettes (Finnpipette, Finland), incubator (Nuve, Turkey), syringe filter 0.45 μm pore size (Microlab, China), microbroth plate (Greiner bio-one, North America), and LABiTec (Germany) for PT and aPTT tests.
The plate is washed with a buffer solution, and Ellman's reagent, which contains the substrate of acetylcholinesterase, is added to the well. […] The anti-inflammatory effect of the tested compounds was evaluated by calculating the percentage inhibition of PGE2 production.

Assay [3] deals with T2, COX1 (Ovis aries, UniProt P05979).
T2 sequence (P05979 25-600): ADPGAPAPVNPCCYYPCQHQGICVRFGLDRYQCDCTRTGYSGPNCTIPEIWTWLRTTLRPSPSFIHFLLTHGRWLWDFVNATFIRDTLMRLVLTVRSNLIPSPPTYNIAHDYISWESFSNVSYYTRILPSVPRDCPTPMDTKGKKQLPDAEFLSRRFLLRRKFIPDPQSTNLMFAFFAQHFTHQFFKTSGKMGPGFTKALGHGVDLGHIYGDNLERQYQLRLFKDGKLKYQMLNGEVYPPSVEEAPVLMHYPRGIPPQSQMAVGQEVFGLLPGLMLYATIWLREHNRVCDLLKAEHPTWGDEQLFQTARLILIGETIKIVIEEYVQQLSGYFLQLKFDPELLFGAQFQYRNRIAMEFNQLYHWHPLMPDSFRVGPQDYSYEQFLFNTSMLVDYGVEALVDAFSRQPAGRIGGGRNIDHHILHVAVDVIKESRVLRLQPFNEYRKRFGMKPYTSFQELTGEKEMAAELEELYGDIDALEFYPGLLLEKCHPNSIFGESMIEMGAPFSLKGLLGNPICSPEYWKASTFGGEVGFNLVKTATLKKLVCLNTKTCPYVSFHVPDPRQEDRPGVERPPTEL
In words: COX inhibitor screening assay kit (Cayman No. 560131), COX1. Particulars: for IC50: ELISA kit, calculated from percentage inhibition of PGE2 production, read-out: IC50 for COX1 enzyme (converted). The assay is classed as biochemical. Set-up: purchased Cayman Chemical, USA 560131. As to the method:
The instrumentation used in this project includes magnetic stirrer and heater (LM-1003), weighing balance (Adventurer-OHAVS-AR2140), and rotaevaporator (Heidolph-OB2000). IR (infrared) spectra were done using FTIR (Thermo Fisher Nicolet IS5). The UV-VIS spectra were done using the JENWAY-7315 spectrophotometer. Nuclear magnetic resonance (NMR) spectra were obtained using the Bruker Avance (300 MHz) spectrometer, micropipettes (Finnpipette, Finland), incubator (Nuve, Turkey), syringe filter 0.45 μm pore size (Microlab, China), microbroth plate (Greiner bio-one, North America), and LABiTec (Germany) for PT and aPTT tests. The Cyclooxygenase (COX) enzyme inhibition test was performed using COX inhibitor screening assay kit No. 560131 Cayman Chemical, USA and was read by Elisaplate Reader (BioRad, Japan).
COX1 and COX2 inhibition activities were determined using a COX inhibitor screening assay kit No. 560131 by Cayman Chemical, USA. The plate is washed with a buffer solution, and Ellman's reagent, which contains the substrate of acetylcholinesterase, is added to the well. The yellow product of this enzymatic reaction is determined spectrophotometrically in a microplate reader (BioRad, Japan) at 415 nm. […]. The anti-inflammatory effect of the tested compounds was evaluated by calculating the percentage inhibition of PGE2 production.

Assay [4] deals with platelet poor citrated plasma. In words: Prothrombin time (PT) test. The format is biochemical, human. To be noted: drug sample 3000 mg/L; for PT Average ± SD: average of three volunteers; for PT: equal volume with plasma, 5 min at 37°C. The method, then:
as §1

For assay [5], the target named is T1, COX2. To be noted: previous published literature; read-out: inhibition activity for COX2 enzyme (converted); cited from earlier work.
The target in assay [6] is T2, COX1. Particulars: previous published literature; cited from earlier work.

For the molecule `CC(=O)Nc1ccc(OC(=O)C(C)c2ccc(CC(C)C)cc2)cc1` (stereo not drawn) [Ibu-Para ester, 4-Acetamidophenyl 2-(4-isobutylphenyl) propanoate], in assay [1], the “aPTT Average ± SD” value turned out to be 71 ± 0.9 s. Also, the aPTT in assay [1] (volunteer 1) worked out at 71.2 s; in assay [1] (volunteer 2), 71.8 s; in assay [1] (volunteer 3), 70 s. Also, the IC50 in assay [2] (ELISA kit, calculated from percentage inhibition of PGE2 production, read-out: IC50 for COX2 enzyme (converted)) is 6.5 µM; in assay [3], 1.56 µM. Further, the “selectivity COX1 versus COX2” value in assay [3] (comparison of the COX1 and COX2 IC50) is listed as “more selective towards COX1”. For the same molecule, the “PT Average ± SD” value in assay [4] was 23.8 ± 6.08 s. Further, the PT was determined as 19.8 s in assay [4] (volunteer 1), 20.8 s in assay [4] (volunteer 2) and 30.8 s in assay [4] (volunteer 3).
For `CC(C)Cc1ccc(C(C)C(=O)O)cc1` (stereo not drawn) [Ibuprofen, reference compound], in assay [4], the “PT Average ± SD” value stood at 21.3 ± 3.3 s.
Consider `COc1ccc2cc([C@H](C)C(=O)Oc3ccc(NC(C)=O)cc3)ccc2c1` [Nap-Para ester], for which the “aPTT Average ± SD” value in assay [1] is 69.9 ± 8.79 s; in assay [1] (listed as naproxen-paracetamol ester), 69.9 ± 7.7 s. The aPTT in assay [1] (volunteer 1) is 78.2 s; in assay [1] (volunteer 2), 70.9 s; in assay [1] (volunteer 3), 60.7 s. Moreover, the values for the IC50 in assay [2] and in assay [3] were 5.23 µM and 4.13 µM, respectively. Further, in assay [4], the “PT Average ± SD” value was 21.8 ± 2.86 s. For the same molecule, the PT in assay [4] (volunteer 1) was 20.4 s; in assay [4] (volunteer 2), 19.9 s; in assay [4] (volunteer 3) it was 25.1 s.
Turning to `COc1ccc2cc([C@H](C)C(=O)O)ccc2c1` [Naproxen], the IC50 in assay [5] is 5.65 µM.
Regarding `CC(=O)Nc1ccc(O)cc1` [Paracetamol, reference compound], the “aPTT Average ± SD” value in assay [1] came out at 72 ± 8.7 s. In addition, the aPTT in assay [1] (volunteer 1) was 73.1 s; in assay [1] (volunteer 2), 62.8 s; in assay [1] (volunteer 3), 80.2 s. The “inhibition activity for COX1 enzyme” value in assay [6] is recorded as “less IC50 inhibition activity”. Also, in assay [4], the “PT Average ± SD” value is 21.7 ± 4.52 s. The figures for the PT in assay [4] (volunteer 1), in assay [4] (volunteer 2) and in assay [4] (volunteer 3) were 18.5 s, 19.4 s and 27.1 s, respectively.
